Experimental data reported in PubChem BioAssay AID588780 (Sanford-Burnham Center for Chemical Genomics, 2011).
Activity calls are given as the source filed them.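 How the source made its calls: active means compounds whose fitted half-maximal concentration in the cell-protection dose series is at or below a set limit; inactive means the rest.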

What follows are compounds tested on H9c2 cardiomyocytes, 2-deoxyglucose stress, ATP luminescence, 2 h (assay: protection of cardiomyocytes from 2-deoxyglucose injury, dose response, cell-based, 2-deoxyglucose stress, uHTS hits (AID 588780)).
For COc1ccc(C2CCCCCN2C(=O)C2CCN(S(=O)(=O)c3cccc(C(C)=O)c3)CC2)cc1 (stereo not drawn), the IC50 was > 79 µM (inactive). With CCCNC(=O)c1ccc(N2CCC3(CC2)CC(c2ccccc2)=NO3)c(NC(=O)c2ccco2)c1 the IC50 was > 79 µM (inactive). For CC(C)(C)C(=O)Nc1ccc(C(=O)N/N=C/c2ccccc2OC(=O)c2ccccc2)cc1, the IC50 was > 79 µM (inactive). For CCOC(=O)CSc1nnc(CSc2nc3ccccc3c(=O)[nH]2)n1-c1ccccc1, the IC50 was > 79 µM (inactive). With CC(=O)NC(CCc1ccc(Cl)c(Cl)c1)c1cccc(O)c(=O)c1 (stereo not drawn) the IC50 was > 79 µM (inactive). With CC(OC(=O)CCc1nc2ccccc2c(=O)[nH]1)C(=O)NCc1ccc2c(c1)OCO2 (stereo not drawn) the IC50 was > 79 µM (inactive). Compound NC(=O)c1oc2ccccc2c1NC(=O)c1ccco1 has an IC50 of 29.4 µM. For CN(C)C(=O)CSc1nc2ccccc2c(=O)[nH]1, the IC50 was > 79 µM (inactive). In the case of CC1Cc2ccccc2N1C(=O)c1cc2c(=O)n3ccccc3nc2n1C (stereo not drawn), the IC50 is reported as > 79 µM (inactive). For COc1ccc(-c2nnc(NC(=O)c3ccc(F)cc3)o2)cc1, the IC50 was > 79 µM (inactive). With O=C1OCCN1C(=O)[C@H]1[C@H](c2ccc([N+](=O)[O-])cc2)C(c2ccccc2)=NN1c1ccc(Br)cc1 the IC50 was > 79 µM (inactive). Compound COc1ccc(-c2csc(NC(=O)CCCc3nc4ccccc4c(=O)[nH]3)n2)cc1OC has an IC50 of 25.3 µM. For O=C(CNC(=O)c1nc[nH]c1C(=O)NCc1ccccc1)OCc1ccccc1, the IC50 was > 79 µM (inactive). With Cc1ncc(CO)c2c1Oc1nc(-c3ccccc3)nc(SCC(=O)N3CCCCC3)c1C2 the IC50 was > 79 µM (inactive). COc1cc2nc(C3CCC3)nc(N3CCN(c4ccccn4)CC3)c2cc1OC was tested, and the IC50 was > 79 µM (inactive). With COc1cccc(/C=N/NC(=O)c2nc(-c3ccccc3)cc(-c3ccccc3)n2)c1 the IC50 was > 79 µM (inactive). For CC(=O)c1cccc(-c2cnc3c(NC=O)cc(-c4ccccc4F)cn23)c1, the IC50 was 17.9 µM. For COc1ccc(C(=O)NNC(=O)CCc2nc3ccccc3c(=O)[nH]2)cc1, the IC50 was > 79 µM (inactive). For Cn1c(=O)c2[nH]c(NN=Cc3ccc(Br)cc3)nc2n(C)c1=O, the IC50 was > 79 µM (inactive). O=P(Nc1ccccc1)(Oc1ccccc1)Oc1ccccc1 was tested, and the IC50 was > 79 µM (inactive). COc1cc(NC(=O)c2ccco2)c(C(=O)OCC(=O)c2c[nH]c3ccccc23)cc1OC showed an IC50 of 7.59 µM. In the case of C/C(=N\NC(=O)c1nnn(-c2nonc2N)c1CSc1ccc(C)cc1)c1cccnc1, the IC50 is reported as > 79 µM (inactive). O=C(NCCN1CCOCC1)c1cnn2c(-c3ccccc3)cc(-c3ccccc3)nc12 was tested, and the IC50 was 18.5 µM. In the case of C[C@@H](C(=O)Nc1nc(-c2ccccn2)cs1)N1C(=O)C2CCCCC2C1=O (stereo partly drawn), the IC50 is reported as > 79 µM (inactive). For Clc1nc2sccn2c1/C=N/n1cnc2ccccc21, the IC50 was > 79 µM (inactive). For COc1ccc(/C=N/NC(=O)c2cc(-c3ccc4c(c3)OCO4)n[nH]2)cc1OC, the IC50 was > 79 µM (inactive). Cc1cccc(C(=O)NC(C(=O)Nc2nc(-c3ccccn3)cs2)C(C)C)c1 (stereo not drawn) gave an IC50 of 12.7 µM. With CCOc1cc(/C=C/c2nc3ccccc3c(=O)[nH]2)ccc1O the IC50 was > 79 µM (inactive). Cc1ccc(N(CCC#N)C(=O)CSc2nc3ccccc3c(=O)[nH]2)cc1 was tested, and the IC50 was > 79 µM (inactive). For O=C(CN1CCN(c2ccccc2F)CC1)c1ccc(O)c(O)c1, the IC50 was > 79 µM (inactive). For CCN(CC(=O)Nc1ccc(OC)cc1)C(=O)CCc1nc2ccccc2c(=O)[nH]1, the IC50 was > 79 µM (inactive). For CC(C)(C)OC(=O)NCCCCCNC(=O)c1[nH]cnc1C(=O)Nc1ccc(Cl)cc1, the IC50 was > 79 µM (inactive). For O=C(COC(=O)Cn1[nH]c(=O)c2ccccc2c1=O)NNC(=O)c1ccccc1, the IC50 was > 79 µM (inactive). For COc1cc(-c2cc(C(=O)Nc3cccc(C(C)=O)c3)c3ccccc3n2)cc(OC)c1OC, the IC50 was > 79 µM (inactive). In the case of O=C(Nc1cccc(Cl)c1)c1nc[nH]c1C(=O)NCCCCNC(=O)c1[nH]cnc1C(=O)Nc1cccc(Cl)c1, the IC50 is reported as > 79 µM (inactive). In the case of O=C(CN1CCN(S(=O)(=O)c2cc(Cl)ccc2Cl)CC1)c1ccc(O)c(O)c1, the IC50 is reported as > 79 µM (inactive). With COc1cc(/C=C(\C#N)C(=O)Nc2ccccc2F)ccc1OCCN1CCOCC1 the IC50 was 25.9 µM. For CCOC(=O)c1nc(Nc2ccc(C(=O)OC)cc2)c2ccccc2n1, the IC50 was > 79 µM (inactive). NC(=O)c1ccc(NC(=O)COc2cccc3c2CCNC3=O)cc1 was tested, and the IC50 was > 79 µM (inactive). COc1ccc(-c2cc(=O)oc3cc(OC(=O)C4CCCCC4)ccc23)cc1 was tested, and the IC50 was 31.7 µM (inactive). COc1ccc(NS(=O)(=O)c2cc(NC(=O)Cc3n[nH]c(=O)c4ccccc34)ccc2OC)cc1 was tested, and the IC50 was > 79 µM (inactive). For O=c1cc(-c2ccncc2)oc2ccccc12, the IC50 was > 79 µM (inactive). In the case of O=C(COC(=O)Cc1n[nH]c(=O)c2ccccc12)NNC(=O)c1ccc(Cl)cc1, the IC50 is reported as > 79 µM (inactive). CCn1nc(C(=O)NNC(=O)c2cc(Cl)ccc2OC)c2ccccc2c1=O was tested, and the IC50 was 74 µM (inactive). With COc1cccc(/C=N/NC(=O)c2[nH]c(C)c(C(=O)N/N=C/c3cccc(OC)c3)c2C)c1 the IC50 was 11.9 µM. For COc1cc(-c2cc(C(=O)N3CCN(c4ccccn4)CC3)c3ccccc3n2)cc(OC)c1OC, the IC50 was 14.4 µM. For CC1Cc2ccccc2C(=O)N1 (stereo not drawn), the IC50 was > 79 µM (inactive). CCc1nc2ccc(C(=O)NCc3cccs3)cn2c1N(C)Cc1nccs1 was tested, and the IC50 was 22.4 µM. O=S(=O)(c1cccc(F)c1)N1CCN(c2nc(-c3cccnc3)nc3ccccc23)CC1 gave an IC50 of 16.1 µM. CC(OC(=O)Cc1n[nH]c(=O)c2ccccc12)C(=O)Nc1cccc([N+](=O)[O-])c1 (stereo not drawn) was tested, and the IC50 was 44.4 µM (inactive). Compound Cc1ccc2c(c1)CCCN2C(=O)CCc1nc2ccccc2c(=O)[nH]1 has an IC50 of 9.06 µM. In the case of CCOC(=O)c1ccc(-c2ccc3ncnc(NCc4csc(C)n4)c3c2)o1, the IC50 is reported as > 79 µM (inactive). COC(=O)c1ccccc1S(=O)(=O)N(Cc1ccco1)Cc1cc2cc(OC)ccc2[nH]c1=O showed an IC50 of 15.4 µM. With O=C(CSc1nc2ccccc2c(=O)[nH]1)N1CCN(S(=O)(=O)c2ccccc2)CC1 the IC50 was > 79 µM (inactive). With CN(C(=O)CCc1nc2ccccc2c(=O)[nH]1)C1CCS(=O)(=O)C1 (stereo not drawn) the IC50 was > 79 µM (inactive). With COc1ccc2o/c(=N/NC(=O)c3cccs3)c(C(N)=O)cc2c1 the IC50 was 16.3 µM. O=C(COC(=O)c1cc(-c2cccnc2)nc2ccccc12)Nc1ccc(F)cc1F showed an IC50 of 23.2 µM. O=C(CCc1nc2ccccc2c(=O)[nH]1)N1CCN(c2ccc(F)cc2)CC1 was tested, and the IC50 was > 79 µM (inactive). For CCOc1ncccc1C(=O)Nc1cccc(-c2nc3cccnc3s2)c1, the IC50 was > 79 µM (inactive). COc1ccc(OC)c(Nc2nc(N)c([N+](=O)[O-])c(N3CCOCC3)n2)c1 showed an IC50 of 20.9 µM. COc1ccc(-n2nc(C(=O)NCC(=O)Nc3cc(OC)c(OC)c(OC)c3)c3ccccc3c2=O)cc1Cl was tested, and the IC50 was > 79 µM (inactive). In the case of CC(C)(C)OC(=O)C[C@@H]1C/C=C\C[C@@H](CC(=O)N[C@H](CO)Cc2ccccc2)C(=O)NC[C@@H](c2ccccc2)OC1=O, the IC50 is reported as > 79 µM (inactive). With CCOC(=O)c1cccc(NC(=O)CSc2nc3ccccc3c(=O)n2CCOC)c1 the IC50 was 34.1 µM (inactive). For O=C(COC(=O)CCc1nc2ccccc2c(=O)[nH]1)NCc1ccc(F)cc1, the IC50 was > 79 µM (inactive). O=C(CCc1nc2ccccc2c(=O)[nH]1)NCC(=O)Nc1ccc(F)c(F)c1 was tested, and the IC50 was > 79 µM (inactive). In the case of O=C(Nc1ccc(CN2CCOCC2)cc1)c1ccc(-c2cccc([N+](=O)[O-])c2)o1, the IC50 is reported as > 79 µM (inactive). In the case of CC(=O)c1cccc(NC(=O)C(C)OC(=O)Cc2n[nH]c(=O)c3ccccc23)c1 (stereo not drawn), the IC50 is reported as > 79 µM (inactive). With Nc1cc2[nH]c(=O)c3ccccc3c2cc1Br the IC50 was > 79 µM (inactive). COc1ccc(NC(=O)COc2cccc3c2CCNC3=O)cc1 was tested, and the IC50 was > 79 µM (inactive). For COc1ccc(C(C(=O)NCc2ccccc2)N(Cc2ccco2)C(=O)c2snc(C(N)=O)c2N)cc1 (stereo not drawn), the IC50 was > 79 µM (inactive). Compound COc1ccc(-c2cc(-c3nnc(COC(=O)c4ccncc4)o3)c3ccccc3n2)cc1OC has an IC50 of 11.4 µM. In the case of Cc1[nH]c2ccccc2c1/C=N/NC(=O)c1cccs1, the IC50 is reported as 40.2 µM (inactive). Work on COc1cc(/C=C/C(=O)Nc2ccc3nc4n(c(=O)c3c2)CCCC4)cc(OC)c1OC yielded an IC50 of 24.2 µM. For COc1cc(C(=O)NCCCNc2nc3cc(C)cc(C)c3cc2C#N)cc(OC)c1OC, the IC50 was 45.6 µM (inactive). For C[C@H](NC(=O)c1nc[nH]c1C(=O)NCC(=O)OCc1ccccc1)C(=O)OCc1ccccc1, the IC50 was > 79 µM (inactive). CCCc1cc(N2CCN(C(=O)c3ccco3)CC2)n2c(nc3ccccc32)c1C#N gave an IC50 of 21.4 µM. CC(=O)c1ccc(-c2cnc3c(NC=O)cc(-c4ccc(C(=O)NC5CC5)cc4)cn23)cc1 was tested, and the IC50 was > 79 µM (inactive). With O=C(COc1cccc2c1CCNC2=O)Nc1ccc(F)cc1 the IC50 was > 79 µM (inactive). In the case of CCOC(=O)c1cccc(C2=C(CNC(=O)c3cccnc3)[C@H]3CC[C@@H](C2)N3Cc2ccccc2)c1, the IC50 is reported as > 79 µM (inactive). With Cn1c2c(c(=O)n(C)c1=O)C(c1ccc(Br)cc1)Nc1ccccc1O2 (stereo not drawn) the IC50 was > 79 µM (inactive). For COc1ccc(-c2nn3c(-c4ccccc4)nnc3s2)cc1OC, the IC50 was > 79 µM (inactive). For Cc1ccc(-c2csc(N3CCC[C@@H]3C(=O)NCCn3c(-c4ccncc4)nc4ccccc43)n2)cc1, the IC50 was > 79 µM (inactive). O=C(Nc1nnc(-c2ccco2)o1)c1ccc2ccccc2c1 was tested, and the IC50 was > 79 µM (inactive). CC(C)CC(=O)Nc1ccc(C(=O)COC(=O)Cc2n[nH]c(=O)c3ccccc23)cc1 was tested, and the IC50 was > 79 µM (inactive). Cc1nc2ccccc2c2c(N)c3ccccc3n12 showed an IC50 of 26.5 µM. Work on COc1cc(/C=N/NC(=O)c2ccccc2)ccc1OS(=O)(=O)c1ccccc1 yielded an IC50 of 9.14 µM. With COc1cccc(-c2cnc3c(NC=O)cc(-c4cc(OC)c(OC)c(OC)c4)cn23)c1 the IC50 was > 79 µM (inactive). In the case of CCC(=O)Oc1ccc2c(C)cc(=O)oc2c1C, the IC50 is reported as > 79 µM (inactive). With Cc1ccc(NCc2ccc(O)c3ncccc23)cc1C the IC50 was > 79 µM (inactive). Work on O=C(O)c1nn(CCOc2ccccc2F)c(=O)c2ccccc12 yielded an IC50 of 25.7 µM. CC(=O)Nc1cc(-c2cccc(NS(C)(=O)=O)c2)cn2c(-c3cccc(C(C)=O)c3)cnc12 was tested, and the IC50 was > 79 µM (inactive). For COc1ccc(CNC(=O)c2ccc(Cn3nc(C)c([N+](=O)[O-])c3C)o2)cc1, the IC50 was > 79 µM (inactive). In the case of CCOC(=O)C1=c2s/c(=C\c3ccncc3)c(=O)n2C(N)=C(C(=O)OC)C1c1ccncc1 (stereo not drawn), the IC50 is reported as > 79 µM (inactive).
